Experimental data as given in publication PMC6099102, “Effect of the Nature of Donor Atoms on the Thermodynamic, Kinetic and Relaxation Properties of Mn(II) Complexes Formed With Some Trisubstituted 12-Membered Macrocyclic Ligands” (Frontiers in Chemistry, 2018).
Where two headings read alike, the source gives them in different places.

Columns and labels:
[1] = cited from earlier work
[2] = Dissociation kinetics of the Mn(II) complexes (acid catalyzed dissociation, metal or ligand exchange reactions); type: physicochemical; settings: I = 0.15 M NaCl, 25 °C; for t1/2 pH = 7.4 cM = 10^−5 M: half-life of dissociation calculated for pH 7.4, 10 μM exchanging metal ion; for t1/2 0.1 M HCl: half-life of dissociation calculated for 0.1 M H+
Procedure: The dissociation reactions were followed by UV-vis spectrophotometry at 269 nm for the pyclen derivatives or at 300 nm for other complexes in the pH range of 3.6–5.0 for the exchange reactions with Cu(II) and up to pH = 6.0 when Zn(II) was used as a ligand scavenger. The acid catalyzed dissociation reactions were performed in the HCl concentration range of 0.05–1.0 M. The concentration of the complexes in the samples was 0.25 mM, while the concentration of the exchanging metal ion in the metal initiated transchelation reactions was 10–40 times higher to ensure pseudo-first-order conditions. Relaxometry was used to follow the transchelation reactions of [Mn(DOTAM)]^2+, [Mn(DO3AM^H)]^2+, [Mn(DO3A)]^−, [Mn(PCTA)]^− and [Mn(ODO3A)]^− with Cu(II)/Zn(II) ions in the pH range of 3.6–5.5 (Figures S17–S19 in Supplementary Material). The concentration of the complexes in these samples was set to 1.0–2.0 mM to achieve relatively large change during the dissociation reaction. […] The temperature was maintained at 25 °C and the ionic strength of the solutions was kept constant at 0.15 M with NaCl. N,N′-dimethyl- (DMP) and N-methyl-piperazine (NMP) buffers (log K2H = 4.18 and 4.90 at 25 °C and I = 0.15 M NaCl, respectively) were used at 0.05 M concentration to keep the pH constant. The pseudo-first-order rate constants (kobs) were calculated by fitting the absorbance or relaxivity-time data pairs to Equation (1) (1) Xt=(X0-Xe)e^-kobst+Xe where Xt, X0, and Xe are the absorbance or relaxivity at time t, at the start and at equilibrium, respectively. The calculations were performed with the computer program Micromath Scientist, version 2.0 (Salt Lake City, UT, USA) using a standard least-squares procedure.
The kinetic inertness of the Mn(II) complexes is the other important parameter for the complexes considered for use in vivo. The inertness of Mn(II) complexes formed with trisubstituted 12-memberd macrocyclic ligands were characterized either by studying the rates of acid catalyzed dissociation or by studying transmetallation reactions occurring between the complexes and a suitable exchanging metal ion such as Zn(II) or Cu(II). The demetallation reactions of labile complexes were performed at high pH by following the ligand exchange reactions with trans-CDTA and DTPA ligands. The demetallation reactions were studied in the presence of a large Cu(II)/Zn(II)/trans-CDTA/DTPA excess or by using high acid concentration in order to ensure pseudo-first-order conditions (Equation 6). Scheme 1 outlines all the possible dissociation pathways for the Mn(II) complexes. […] The reactions of the released Mn(II) and L ligand with the exchanging L' and M' reactants are assumed to be very rapid.
The rate of dissociation can be expressed by the Equation (6), where kobs is the pseudo-first-order rate constant and [Mn(L)]t is the total concentration of the species containing [Mn(L)] complex. The [Mn(L)]t will differ slightly depending on the experimental conditions (in the presence of a large metal or ligand excess). As [Mn(L)]t = [Mn(L)] + [Mn(HL)] + [Mn(H2L)] + [Mn(L)M] + [Mn(L)(L')] + [Mn(HL)(L')] for reactions performed at high pH (in the pH range of 3.0–5.0 often applied in Cu(II) exchange reactions) will involve fewer protonated species while the acid catalyzed dissociation reactions run in the strongly acidic media (0.1–1.0 M acid concentration range) predominantly contain protonated species ([Mn(L)]t = [Mn(L)]+[Mn(HL)]+[Mn(H2L)]). (6) -d[MnL]t/dt=kobs[MnL]t
By taking into account the various complex species and the possible reaction pathways as well as the protonation and stability constants of the reactive intermediates, the following equation (Equation 7) can be derived to describe the rates of dissociation. […]

[3] = Longitudinal water proton relaxivity (r1p) of the Mn(II) complexes; type: physicochemical
Procedure: The relaxometric data were collected using a Bruker Minispec MQ20 NMR relaxometer. […] A datapoint plotted on figures represents an average of 5–6 T1 measurements (Figures S3–S9 in Supplementary Material). The data were fitted by using the molar r1p relaxivity value of the MnCl2 ([…] at 0.49 T and 25 °C). The equilibrium constants were calculated using the PSEQUAD program (Zékány and Nagypál, [1985]).
The longitudinal water proton relaxation rates (r1 = 1/T1-1/Tw) were measured at 20 MHz with a Bruker Minispec MQ-20 relaxometer (Bruker Biospin, Germany). Samples were thermostated by using a circulating water bath at 25.0 ± 0.2 °C. The longitudinal relaxation times (T1) were measured by the inversion-recovery method (180° − τ − 90°), averaging 5–6 data points collected for each concentration point obtained from 14 different τ values (τ values ranging between 0 to at least 6 times the expected T1). The relaxivity of the complexes was determined by titrating a nearly 1.0 mM ligand solution with a Mn(II) stock solution at pH = 7.22–7.43 (50 mM HEPES buffer, I = 0.15 M NaCl, 25 °C). Under these conditions, the only Mn(II) ion containing species present in solution is the [Mn(L)], which was supported by the r1 vs. pH profiles. The relaxivity of the complex was determined as the slope of the strait line obtained by plotting 1/T1p values as a function of Mn(II) concentration for samples with [Ligand] > [Mn(II)]. The relaxivity of [Mn(DOTP)]^6− and [Mn(DO3P)]^4− was determined in the pH range of 10.0–11.0 and 8.5–9.3, respectively where mainly the [Mn(DO3P)]^4− and [Mn(DOTP)]^6− complex exists in solution (Figures S4 and S9 in Supplementary Material).
The relaxivity (r1p, mM^−1s^−1) is defined as the longitudinal water proton relaxation rate in a solution containing 1.0 mM concentration of the paramagnetic species. It characterizes the efficiency of a paramagnetic metal chelate to enhance the solvent proton relaxation rate at a given magnetic field (usually 20 MHz) and temperature. The inner-sphere contribution to relaxivity is directly proportional to the number of metal bound water molecules (q), and therefore, relaxivity values may provide some useful information on the hydration state of paramagnetic complexes of similar molecular weights and electronic relaxation times. […] The r1p values of the Mn(II) complexes formed with heptadentate 12-membered macrocyclic ligands were determined at 0.5 T field strength and 25 °C and reported in Table 4 along with some relaxivity data published for the complexes of hexa-, hepta- and octadentate ligands. […] Below these pH ranges the phosphonate moieties undergo protonation, which further increases the relaxivity (2.60–2.90 mM^−1s^−1 values were observed near pH = 7.4, see Supplementary Material). Similar increase in the relaxivity (to 3.20 mM^−1s^−1 at 20 MHz, 37 °C) is observed for the [Mn(DOTA)]^2− complex upon its protonation and formation of the thermodynamically stable diprotonated [Mn(H2DOTA)] complex that exists as a non-hydrated chelate both in solution and in the solid state (Wang and Westmoreland, [2009]). The relaxivity of the diprotonated species at t → 0 time point was determined from the extrapolation of the relaxivity vs. time data collected after acidification of the samples containing the complexes. The X-ray crystallographic structure of [Mn(H2DOTA)] indicates the protonation of two trans carboxylate moieties (e.g., the coordination around the metal ion is similar to that observed in [Mn(trans-DO2A)] as determined by DFT calculations). Thus, the relaxivity of the diprotonated [Mn(H2DOTA)] and [Mn(H2DOTMA)] complexes is expected to be similar to that of [Mn(trans-DO2A)] (when q = 0). The value obtained by us is considerably higher, which highlights the importance of prototropic exchange as a useful tool to improve the relaxivity of the complexes (however, it has to be underlined that the protonation of the complex generally leads to a decrease in kinetic inertness).

[4] = 0.5 T field strength, 25 °C and pH = 7.4
[5] = ligand exchange reaction with trans-CDTA^4− or DTPA^5− in the pH range 8-9.5

O=C([O-])CN1CCNCCN(CC(=O)[O-])CCN(CC(=O)[O-])CC1.[Mn+2] [[Mn(DO3A)]^−]
r1p ([1]; ref Rolla et al. ([2013])): 1.30 mM⁻¹ s⁻¹ | k1 (proton-assisted dissociation) [2]: 0.45 ± 0.03 M⁻¹ s⁻¹ | k2 (proton-assisted dissociation) [2]: (3.2 ± 0.3) × 10^2 M^−2s^−1 | t1/2 pH = 7.4 cM = 10^−5 M [2]: 1.1 × 10^4 h | r1p [3, 4]: 1.18 to 1.31 mM⁻¹ s⁻¹

NC(=O)CN1CCNCCN(CC(N)=O)CCN(CC(N)=O)CC1.[Mn+2] [[Mn(DO3AM^H)]^2+]
k1 (proton-assisted dissociation) [2]: 0.94 ± 0.02 M⁻¹ s⁻¹ | t1/2 0.1 M HCl [2]: 0.123 min | t1/2 pH = 7.4 cM = 10^−5 M [2]: 5.2 × 10^3 h | r1p [3, 4]: 1.33 mM⁻¹ s⁻¹

O=P([O-])([O-])CN1CCNCCN(CP(=O)([O-])[O-])CCN(CP(=O)([O-])[O-])CC1.[Mn+2] [[Mn(DO3P)]^4−]
t1/2 pH = 7.4 cM = 10^−5 M [2]: 3 × 10^−3 h | k1 (proton-assisted dissociation) [2, 5]: (2.4 ± 0.2) × 10^5 M^−1s^−1 | k2 (proton-assisted dissociation) [2, 5]: (2.2 ± 0.3) × 10^14 M^−2s^−1 | r1p ([3]; 0.5 T, 25 °C, determined in the pH range of 8.5–9.3): 2.23^[b] mM^−1s^−1 | relaxivity ([3]; near pH = 7.4, protonated phosphonate moieties): 2.60 to 2.90 mM⁻¹ s⁻¹

NC(=O)CN1CCN(CC(N)=O)CCN(CC(N)=O)CCN(CC(N)=O)CC1.[Mn+2] [[Mn(DOTAM)]^2+]
r1p ([1]; 0.5 T field strength (20 MHz) and 37 °C, ref Wang and Westmoreland ([2009])): 0.96 mM⁻¹ s⁻¹ | k1 (proton-assisted dissociation) [2]: (1.6 ± 0.03) × 10^−2 M^−1s^−1 | t1/2 0.1 M HCl [2]: 7.17 min | r1p [3, 4]: 1.11 mM⁻¹ s⁻¹

O=C([O-])CN1CCOCCN(CC(=O)[O-])CCN(CC(=O)[O-])CC1.[Mn+2] [[Mn(ODO3A)]^−]
k1 (proton-assisted dissociation) [2]: 27 ± 2 M⁻¹ s⁻¹ | k2 (proton-assisted dissociation) [2]: (1.5 ± 0.3) × 10^5 M^−2s^−1 | t1/2 pH = 7.4 cM = 10^−5 M [2]: 1.8 × 10^2 h | r1p [3, 4]: 1.40 mM⁻¹ s⁻¹

O=C([O-])CNC(=O)CN1CCN(CC(=O)NCC(=O)[O-])Cc2cccc(n2)CN(CC(=O)NCC(=O)[O-])CC1.[Mn+2] [[Mn(PC3AM^Gly)]^−]
t1/2 0.1 M HCl [2]: 5.83 min | k1 (proton-assisted dissociation) ([2]; proton-assisted dissociation of the [Mn(H3L)] complex): (1.64 ± 0.02) × 10^−2[c] M^−1s^−1 | k0 (spontaneous dissociation) ([2]; spontaneous dissociation of the [Mn(H3L)] complex): (3.4 ± 0.2) × 10^−4[c] s^−1 | r1p [3, 4]: 1.44 mM⁻¹ s⁻¹

NC(=O)CN1CCN(CC(N)=O)Cc2cccc(n2)CN(CC(N)=O)CC1.[Mn+2] [[Mn(PC3AM^H)]^2+]
k1 (proton-assisted dissociation) [2]: (1.07 ± 0.01) × 10^−2 M^−1s^−1 | t1/2 0.1 M HCl [2]: 10.8 min | r1p [3, 4]: 1.21 mM⁻¹ s⁻¹
